Test results: US11806343B2, “Inhibitors of DUX4 induction for regulation of muscle function” (Sonic Master Limited, priority 2017, dated 2023)
Read-outs that look alike come from different tables or passages of the source.

Key:
Genea049 FSHD hESC-SkM = experiment: FSHD hESC-SkM immunocytochemistry, Myosin Heavy Chain and nuclei (myogenic inhibition/toxicity); type: cell-based, human
Description: FIG. 6 provides an example of a screening and culturing workflow for hESC-SkM assays. At Day 0, hESC-derived myoblasts are thawed into a 96-well plate in myoblast medium (Genea BioCells). On Day 2, the medium is replaced with new myoblast medium containing 1.15 μM. Decitabine. […] On Day 7, the myotubes are analyzed. For example, the myotubes may be analyzed for MHC expression or DUX4 expression.
(§1) Genea049 FSHD-affected human Embryonic Stem Cells (hESCs) were differentiated using Genea's myogenic differentiation protocol (Caron et 2015) to the myoblast stage and cryopreserved. Frozen myoblasts were resuscitated and 4500 cells were plated into each well of a 96-well collagen I coated tissue culture plate in myoblast medium. After two days of cell growth medium was changed to 100 μL per well myoblast medium containing 1.15 μM Decitabine. […] Cells were allowed to differentiate to myotubes for four additional days then were fixed and analyzed for quantification of DUX4 expression, Myosin Heavy Chain expression, and nuclei number. Triplicate wells of each condition were averaged.
as §1, with “et al.,” for “et”, “number by high-content imaging.” for “number.”

[1] = system: 17MB026 primary FSHD-affected patient myotubes; experiment: FSHD primary patient biopsy myotube immunocytochemistry, Myosin Heavy Chain and nuclei; type: cell-based, human; conditions: 17MB026 primary myotubes, 2 nM-5 μM, 2.5 days
Description: FIG. 10 provides the workflow for assays performed with patient biopsy-derived muscle. On Day 0, patient myoblasts are passaged in a 96-well dish in primary myoblast medium (Genea BioCells). On Day 2, the medium is changed to […].
17MB026 primary FSHD-affected patient myoblasts (obtained from the University of Rochester FSHD Biorepository) were thawed and cultured as described in Rickard et al., 2015 in primary myoblast medium. Cells (6000 per well) were seeded to a collagen-I coated 96-well plate in 100 μl primary myoblast medium. Medium was changed every other day until cells reached 80% confluence followed by a switch to 100 μL per well primary myotube medium. […] Cells were fixed and analyzed after 2.5 days of myotube formation by immunocytochemistry and high-content imaging for DUX4, H3.X/Y, Myosin Heavy Chain expression and nuclei number. Five or six replicate wells were averaged per condition, […]

myotube marker genes = experiment: Nanostring panel transcript analysis, myogenic genes; type: cell-based, human; conditions: 17MB026 primary myotubes, 30 nM-3 μM, 3 days
Description: 17MB026 primary FSHD-affected patient myoblasts (obtained from the University of Rochester FSHD Biorepository) were thawed and cultured as described in Rickard et al., 2015 in primary myoblast medium. Cells (4000 per well) were seeded to a collagen-I coated 96-well plate in 100 μL primary myoblast medium. Medium was changed every other day until cells reached 80% confluence followed by a switch to 100 μL per well primary myotube medium. […] Cells were lysed after 3 days of myotube formation using 10 μL of iScript Buffer (Biorad) per well. The resulting lysates were frozen at −30° C. After thaw, 5 μL of each lysate was combined with a custom-designed Nanostring transcript probe and capture codeset. Probes were hybridized to lysates and run cartridge was loaded and run per standard protocol. Normalization and background subtraction were performed using the nSolver 3.0 software using standard conditions DUX4 target gene and myotube marker gene expression values were normalized to a standard set of housekeeping genes. Duplicate wells of each condition were averaged.

[2] = Acute pharmacokinetic study, plasma; type: in vivo, CD-1 mice; conditions: mouse plasma; for AUClast: 0 to 24 hours
Description: Intraperitoneal injection, which provides the drug via absorption into the mesenteric blood supply and is thus subject to hepatic first-pass metabolism, was used to approximate oral dosings total of 96 mice were utilized: 3 naive CD-1 male mice and 3 naïve CD-1 female mice were dosed per route of administration per 2 doses plus 3 naive CD-1 male mice and 3 naïve CD-1 female mice were per route of administration per dose for tissue collection. Following administration, blood, brain, and muscle samples were collected as follows; Two blood samples were collected from each mouse at 2 distinct timepoints over 24 bout post-dose to include 0.25, 0.5, 1, 2, 4, 8, and 24 hours. Blood samples were centrifuged to obtain plasma samples. For each time point, duplicate aliquots of plasma were transferred into an appropriately labeled sample tube containing a volume of buffer. The diluted plasma samples were stored at −20° C. for the first 24 hours and then transferred to −80° C. 24 hours of processing. Terminal brain and muscle samples were collected at 1 hour and 24 hours after administration. Tissue samples were temporarily put on dry ice and then stored at −20° C. for the first 24 hours and then transferred to −80° C. 24 hours of collection Plasma, brain and muscle samples were analyzed for test substance quantification using a method based on protein precipitation followed by HPLC-MS/MS analysis within optimized bioanalytical method.

SRC = experiment: RT-PCR of SRC mRNA in patient biopsy-derived primary myotubes; type: cell-based, human; conditions: 10 nM-1 μM, 2.5 days, vs vehicle
Description: Patient biopsy-derived primary myoblasts were seeded to a collagen-I coated plate in primary myoblast medium. Medium was changed every other day until cells reached 80% confluence followed by a switch to primary myotube medium. […] After 2.5 days of myotube formation, the cells were lysed with buffer RLT followed by RNA isolation with RNeasy Plus Mini Kit (Qiagen). 500 ng of RNA was used for cDNA synthesis with SuperScript III first-strand synthesis system for RT-PCR (Invitrogen) and both random hexamers and oligo(dT)20 primers. RT-PCR was performed using TaqMan™ Fast Advanced Master Mix (Applied Biosystems). Reactions were analyzed upon a QuantStudio 3 Real-Time PCR machine using the following cycle conditions: 50° C. for 2 minutes, 95° C. for 2 minutes, followed by 40 cycles at 95° C. for 15 seconds, 60° C. for 1 minute, Results were normalized against GAPDH expression.

[3] = IM, 10 mg/kg single dose, N = 6
[4] = IM, 50 mg/kg single dose, N = 6
[5] = IP, 10 mg/kg single dose, N = 6
[6] = IP, 50 mg/kg single dose, N = 6

## CNC(=O)c1cc(Oc2ccc(NC(=O)Nc3cc(C(C)(C)C)nn3-c3ccc4ncccc4c3)c(F)c2)ccn1 [GBC0905, Rebastinib]
Genea049 FSHD hESC-SkM; 10 nM-3 μM, four days
  Myosin Heavy Chain expression and nuclei count, dose curve: not seen in cells treated with GBC0905 (Rebastinib) at concentrations lower than 3 μM
Genea049 FSHD hESC-SkM; 100 nM, four days of culture
  Myosin Heavy Chain expression and nuclei count: these effects are not seen
[1]
  Myosin Heavy Chain and nuclei count: without reducing Myosin Heavy Chain or nuclei count
Myotube marker genes
  expression of characteristic myotube genes: does not decrease expression of queried characteristic myotube genes
[2]; both sexes, CD-1, im, intramuscular injection, 10 or 50 mg/kg, read-out: median time to maximum concentration (Tmax)
  tmax: 2 to 4 h
[2]; [3]
  AUClast: 93.54 µg·h/mL
  AUC∞: 98.469 µg·h/mL
  Cmax: 8203 ng/mL
  MRT∞: 7.83 h
  t1/2: 5.59 h
  tmax: 2 h
[2]; [4]
  AUClast: 222.518 µg·h/mL
  AUC∞: 256.486 µg·h/mL
  Cmax: 15103 ng/mL
  MRT∞: 11.8 h
  t1/2: 8.10 h
  tmax: 4 h
[2]; [5]
  AUClast: 162.488 µg·h/mL
  AUC∞: 162.568 µg·h/mL
  Cmax: 23683 ng/mL
  MRT∞: 4.46 h
  t1/2: 2.12 h
  tmax: 2 h
[2]; [6]
  AUClast: 651.387 µg·h/mL
  AUC∞: 651.534 µg·h/mL
  Cmax: 81633 ng/mL
  MRT∞: 4.73 h
  t1/2: 1.90 h
  tmax: 2 h
[2]; intraperitoneal injection, 10 or 50 mg/kg
  median time to maximum concentration (Tmax): 2 h
SRC
  expression levels of SRC (mRNA): No significant difference
